Laboratory results: US12092631B2, “Optical thromboelastography systems and methods” (The General Hospital Corporation, priority 2014, dated 2024)

How the values were obtained:
[1] = test system: platelets in human whole blood; assay: OTEG platelet aggregate size in ADP-activated human whole blood; format: cell-based; conditions: FIG. 8B
Procedure: FIGS. 8A, 8B: Preliminary studies to assess platelet aggregation using OTEG methodology. FIG. 8A: Increasing aggregate radius, a, of polystyrene beads (rad=1.5 μm) caused by adding MgCl2 salt is detected by OTEG. Aggregate size was related with salt concentration, confirmed by other reports. FIG. 8B: In human whole blood, OTEG detects a 5-fold and 2.5-fold increase in aggregate size with addition of 10 and 5 μM ADP relative to blood without ADP (control). […] To enable platelet function assessment (PLT channel) via the embodiment of the OTEG device of the present invention, a new strategy was implemented to quantify platelet aggregation in whole blood. […] To estimate the rate and extent of platelet aggregation, speckle frames are processed and MSD values are calculated, as above (FIG. 5; box 3). […] The effective particle radius, a, is then obtained from the Stokes-Einstein relation (SER) (FIG. 5: box 4c), the aggregate growth from the baseline at time t=0 is plotted, and the maximum extent of platelet aggregation (RPLT) is estimated at 10 min to quantify platelet function (FIG. 12B). […] We further verified the capability to detect platelet aggregation in ADP-activated blood and monitored the change of effective aggregate radius. […] Clearly, the effective aggregate radius increase with ADP concentration and can be detected with OTEG with high sensitivity. […]

[2] = test system: platelets in platelet rich plasma; assay: OTEG platelet aggregation/disaggregation in platelet rich plasma specimens; format: cell-based; conditions: FIG. 19A
Procedure: FIG. 15B is a block-scheme representing an embodiment of the processing algorithm according to the invention for calculating the platelet aggregate size from speckle fluctuations in the plasma. Platelet rich plasma specimen is transferred into an OTEG cartridge, customized for platelet function assessment and preloaded with 20 μl Adenosine 5′-diphosphate solution (Sigma-Aldrich) (i.e. 5 μM final concentration of ADP in the […]). The cartridge is inserted in the OTEG device and speckle acquisition begins immediately. During acquisition, ADP triggers conformational changes followed by aggregation, which increase the average scattering particle radius. Since Ca′ ions are absent, coagulation cascade is not initiated and the plasma appears as a primarily viscous liquid with the viscosity of η=3 centipoises (@ 37° C.), particularly at small length scales probed by platelets. Compared to small isolated platelets, large aggregates experience a shorter range of diffusive motion and induce slower speckle fluctuations. To estimate the rate of platelet aggregation, speckle frames are processed and speckle intensity autocorrelation functions are calculated. Since plasma is an optically dilute material, the mean square displacements (MSD) values of platelet aggregates can be extracted from the g2(t) curves, using the DLS formalism, as shown in FIG. 7(B), box 2. Fitting the MSD to a linear model of MSD=6Dt at early times provides the diffusion coefficient, D, of scattering particles. The effective scattering radius is then obtained from the Stokes-Einstein relation as: α=KbT/(6πDη), where Kb is the Boltzman constant and T is the temperature (degrees Kelvin).

Row | SMILES | increase in aggregate size relative to blood without ADP (control) ([1]; 5 μM ADP) [fold] | increase in aggregate size relative to blood without ADP (control) ([1]; 10 μM ADP) [fold] | platelet aggregation detected by OTEG ([2]; ADP final concentration 5 μM) | platelet aggregation detected by OTEG ([2]; ADP 5 μM plus Clopidogrel 3 μM) | platelet aggregation detected by OTEG ([2]; ADP 5 μM plus Clopidogrel 30 μM)
1 | Nc1ncnc2c1ncn2[C@@H]1O[C@H](COP(=O)(O)OP(=O)(O)O)[C@@H](O)[C@H]1O [ADP, Adenosine 5′-diphosphate] | 2.5 | 5 | rapid and complete platelet aggregation |  | 
2 | COC(=O)[C@H](c1ccccc1Cl)N1CCc2sccc2C1 [Clopidogrel] |  |  |  | rapid initial aggregation, followed by a rapid disaggregation | no aggregation
